How the values were obtained:
rice = assay: Test B flood test rice; type: in vivo, Oryza sativa; conditions: Pre-emergence
Experimental: (§1) At the same time, these crop and weed species were also treated with postemergence applications of test chemicals formulated in the same manner. Plants ranged in height from 2 to 18 cm (1- to 4-leaf stage) for postemergence treatments. Plant species in the flood test consisted of rice (Oryza sativa), smallflower flatsedge (Cyperus difformis), duck salad (Heteranthera limosa) and bamyardgrass (Echinochloa crus-galli) grown to the 2-leaf stage for testing. Treated plants and controls were maintained in a greenhouse for twelve to sixteen days, after which all species were compared to controls and visually evaluated. Plant response ratings, summarized in Table B, are based on a scale of 0 to 10 where 0 is no effect and 10 is complete control. A dash (−) response means no test result.

smallflower flatsedge = assay: Test B flood test smallflower flatsedge; type: in vivo, Cyperus difformis; conditions: for Plant response rating, S. Flatsedge (0 to 10 scale, 0 is no effect, 10 is complete control): Rate 62 g/ha
Experimental: as §1

duck salad = assay: Test B flood test duck salad; type: in vivo, Heteranthera limosa; conditions: for Plant response rating, Ducksalad (0 to 10 scale, 0 is no effect, 10 is complete control): Rate 62 g/ha
Method in brief: (§2)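 Flood test on plants grown to the 2-leaf stage; treated plants kept in greenhouse twelve to sixteen days, then visually rated against controls on a 0 (no effect) to 10 (complete control) scale.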

bamyardgrass = assay: Test B flood test barnyardgrass; type: in vivo, Echinochloa crus-galli; conditions: for Plant response rating, Barnyardgrass (0 to 10 scale, 0 is no effect, 10 is complete control): Rate 62 g/ha
Method in brief: as §2

bedstraw = assay: Test B pre/postemergence bedstraw; type: in vivo, Galium aparine; conditions: Preemergence
Method in brief: (§3)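 Response is a visual 0-to-10 score relative to untreated plants, where 0 means no effect and 10 means complete control, taken twelve to sixteen days after application. Treatments went onto soil at planting and onto foliage of 1- to 4-leaf plants, using a surfactant-containing non-phytotoxic solvent.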

blackgrass = assay: Test B pre/postemergence blackgrass; type: in vivo, Alopecurus myosuroides; conditions: Preemergence
Method in brief: as §3

surinam grass = assay: Test B pre/postemergence surinam grass; type: in vivo, Brachiaria decumbens; conditions: Preemergence
Method in brief: as §3

cocklebur = assay: Test B pre/postemergence cocklebur; type: in vivo, Xanthium strumarium; conditions: Preemergence
Method in brief: as §3

corn = assay: Test B pre/postemergence corn; type: in vivo, Zea mays; conditions: Preemergence
Method in brief: as §3

crabgrass = assay: Test B pre/postemergence crabgrass; type: in vivo, Digitaria sanguinalis; conditions: Preemergence
Method in brief: as §3

giant foxtail = assay: Test B pre/postemergence giant foxtail; type: in vivo, Setaria faberii; conditions: Preemergence
Method in brief: as §3

morningglory = assay: Test B pre/postemergence morningglory; type: in vivo, Ipomoea hederacea; conditions: Preemergence
Method in brief: as §3

pigweed = assay: Test B pre/postemergence pigweed; type: in vivo, Amaranthus retroflexus; conditions: Preemergence
Method in brief: as §3

rape = assay: Test B pre/postemergence rape; type: in vivo, Brassica napus; conditions: Preemergence
Method in brief: as §3

soybean = assay: Test B pre/postemergence soybean; type: in vivo, Glycine max; conditions: Preemergence
Method in brief: as §3

sugar beet = assay: Test B pre/postemergence sugar beet; type: in vivo, Beta vulgaris; conditions: Preemergence
Method in brief: as §3

velvetleaf = assay: Test B pre/postemergence velvetleaf; type: in vivo, Abutilon theophrasti; conditions: Preemergence
Method in brief: as §3

wheat = assay: Test B pre/postemergence wheat; type: in vivo, Triticum aestivum; conditions: Preemergence
Method in brief: as §3

wild oat = assay: Test B pre/postemergence wild oat; type: in vivo, Avena fatua; conditions: Preemergence
Method in brief: as §3

purple nutsedge = assay: Test B pre/postemergence purple nutsedge; type: in vivo, Cyperus rotundus; conditions: Preemergence
Method in brief: as §3

[1] = flood test species, Pre-emergence, visual evaluation after twelve to sixteen days
[2] = Rate 125 g/ha, Pre-emergence, flood test species, scale 0 to 10 where 0 is no effect and 10 is complete control
[3] = Rate 250 g/ha, Pre-emergence, flood-test species, scale 0 to 10, 0 is no effect, 10 is complete control
[4] = Rate 500 g/ha, Pre-emergence, flood test species, scale 0 to 10 (0 no effect, 10 complete control)
[5] = Rate 62 g/ha, scale of 0 to 10 where 0 is no effect and 10 is complete control
[6] = Rate 125 g/ha, scale of 0 to 10 where 0 is no effect and 10 is complete control
[7] = Rate 250 g/ha, scale 0 to 10 (0 no effect, 10 complete control)
[8] = Rate 500 g/ha, scale of 0 to 10 where 0 is no effect and 10 is complete control
[9] = Rate 125 g/ha, under heading Pre-emergence, flood test species, visual evaluation after twelve to sixteen days
[10] = Rate 250 g/ha, Pre-emergence (flood test species), scale 0 to 10, 0 is no effect, 10 is complete control
[11] = Rate 500 g/ha, Pre-emergence section of Table B, 0 to 10 scale (0 no effect, 10 complete control)

Cc1cc(C)n(Cn2c(=O)on(C(=O)N(c3ccccc3)C(C)C)c2=O)n1 [Compound 346]
0: Plant response rating, Rice (0 to 10 scale, 0 is no effect, 10 is complete control) (rice; Rate 62 g/ha, flood test species, visual evaluation after twelve to sixteen days) | Rice plant response rating (rice; Rate 125 g/ha, flood test species, scale 0 to 10 where 0 is no effect and 10 is complete control) | Rice plant response rating (rice; Rate 250 g/ha, flood-test species, scale 0 to 10, 0 is no effect, 10 is complete control) | Rice plant response rating (rice; Rate 500 g/ha, flood test species, scale 0 to 10 (0 no effect, 10 complete control)) | Plant response rating, S. Flatsedge (0 to 10 scale, 0 is no effect, 10 is complete control) (smallflower flatsedge; [1]) | S. Flatsedge plant response rating (smallflower flatsedge; [2]) | S. Flatsedge plant response rating (smallflower flatsedge; [3]) | S. Flatsedge plant response rating (smallflower flatsedge; [4]) | Plant response rating, Ducksalad (0 to 10 scale, 0 is no effect, 10 is complete control) (duck salad; [1]) | Ducksalad plant response rating (duck salad; [2]) | Ducksalad plant response rating (duck salad; [3]) | Ducksalad plant response rating (duck salad; [4]) | Plant response rating, Barnyardgrass (0 to 10 scale, 0 is no effect, 10 is complete control) (bamyardgrass; [1]) | Barnyardgrass plant response rating (bamyardgrass; [2]) | Barnyardgrass plant response rating (bamyardgrass; [3]) | Barnyardgrass plant response rating (bamyardgrass; [4])

CCCCCCn1c(=O)on(C(=O)N(c2ccc(F)cc2F)C(C)C)c1=O [Compound 637]
0: Bedstraw plant response rating (bedstraw; [5]) | Bedstraw plant response rating (bedstraw; [6]) | B. signalgrass plant response rating (surinam grass; [5]) | Cocklebur plant response rating (cocklebur; [5]) | Cocklebur plant response rating (cocklebur; [6]) | Plant response rating, Cocklebur (cocklebur; [7]) | Plant response rating, Cocklebur (cocklebur; [8]) | Corn plant response rating (corn; [5]) | Corn plant response rating (corn; [6]) | Plant response rating, Corn (corn; [7]) | Plant response rating, Corn (corn; [8]) | Morningglory plant response rating (morningglory; [5]) | Morningglory plant response rating (morningglory; [6]) | Plant response rating, Morningglory (morningglory; [7]) | Plant response rating, Morningglory (morningglory; [8]) | Rape plant response rating (rape; [5]) | Rape plant response rating (rape; [6]) | Soybean plant response rating (soybean; [5]) | Soybean plant response rating (soybean; [6]) | Plant response rating, Soybean (soybean; [7]) | Plant response rating, Soybean (soybean; [8]) | Sugarbeets plant response rating (sugar beet; [5]) | Sugarbeets plant response rating (sugar beet; [6]) | Velvetleaf plant response rating (velvetleaf; [5]) | Velvetleaf plant response rating (velvetleaf; [6]) | Plant response rating, Velvetleaf (velvetleaf; [7]) | Wheat plant response rating (wheat; [5]) | Wheat plant response rating (wheat; [6]) | Plant response rating, Wheat (wheat; [7]) | Plant response rating, Wheat (wheat; [8]) | Wild oats plant response rating (wild oat; [5]) | Wild oats plant response rating (wild oat; [6]) | Plant response rating, Wild oats (wild oat; [7]) | Nutsedge plant response rating (purple nutsedge; [5]) | Nutsedge plant response rating (purple nutsedge; [6]) | Plant response rating, Nutsedge (purple nutsedge; [7]) | Plant response rating, Nutsedge (purple nutsedge; [8]) | Plant response rating, S. Flatsedge (0 to 10 scale, 0 is no effect, 10 is complete control) (smallflower flatsedge; [1]) | S. Flatsedge plant response rating (0 to 10 scale, 0 is no effect, 10 is complete control) (smallflower flatsedge; [9]) | S. Flatsedge plant response rating (smallflower flatsedge; [10]) | S. Flatsedge plant response rating (smallflower flatsedge; [11]) | Plant response rating, Ducksalad (0 to 10 scale, 0 is no effect, 10 is complete control) (duck salad; [1]) | Ducksalad plant response rating (0 to 10 scale, 0 is no effect, 10 is complete control) (duck salad; [9]) | Ducksalad plant response rating (duck salad; [10]) | Ducksalad plant response rating (duck salad; [11]) | Plant response rating, Barnyardgrass (0 to 10 scale, 0 is no effect, 10 is complete control) (bamyardgrass; [1]) | Barnyardgrass plant response rating (0 to 10 scale, 0 is no effect, 10 is complete control) (bamyardgrass; [9]) | Barnyardgrass plant response rating (bamyardgrass; [10]) | Barnyardgrass plant response rating (bamyardgrass; [11])
8: Plant response rating, B. signalgrass (surinam grass; [7]) | Plant response rating, B. signalgrass (surinam grass; [8])
4: Plant response rating, Bedstraw (bedstraw; [8]) | Redroot pigweed plant response rating (pigweed; [5])
2: Plant response rating, Bedstraw (bedstraw; [7]) | Blackgrass plant response rating (blackgrass; [5]) | Plant response rating, Rape (rape; [7]) | Plant response rating, Velvetleaf (velvetleaf; [8])
9: Plant response rating, Blackgrass (blackgrass; [7]) | Plant response rating, Blackgrass (blackgrass; [8]) | Crabgrass plant response rating (crabgrass; [5]) | Crabgrass plant response rating (crabgrass; [6]) | Giant foxtail plant response rating (giant foxtail; [5]) | Redroot pigweed plant response rating (pigweed; [6])
3: Blackgrass plant response rating (blackgrass; [6]) | B. signalgrass plant response rating (surinam grass; [6]) | Plant response rating, Rape (rape; [8]) | Plant response rating, Sugarbeets (sugar beet; [7]) | Plant response rating, Wild oats (wild oat; [8])
7: Plant response rating, Redroot pigweed (pigweed; [7])
5: Plant response rating, Sugarbeets (sugar beet; [8])
10: Plant response rating, Crabgrass (crabgrass; [7]) | Plant response rating, Crabgrass (crabgrass; [8]) | Giant foxtail plant response rating (giant foxtail; [6]) | Plant response rating, Giant foxtail (giant foxtail; [7]) | Plant response rating, Giant foxtail (giant foxtail; [8]) | Plant response rating, Redroot pigweed (pigweed; [8])
